Experimental data: patent US7462600B2, “Macrolides” (Pfizer Inc, priority 2004, dated 2008)
Values after ≈ are worked out from the molar mass of the structure shown.

What was measured:
Type in all cases: cell-based
[1] = tested on: Haemophilus influenzae 1218; assay: MIC, microtiter broth dilution (NCCLS M100-S14), H. influenzae 1218 (susceptible); conditions: Haemophilus influenzae 1218
In short: (§1)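 Compounds were first dissolved in DMSO (40 mg/ml stock), then tested by broth dilution in microtiter trays. MICs were interpreted using the 14th Informational Supplement (M100-S14) criteria.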

[2] = tested on: Streptococcus pneumoniae 1016; assay: MIC, microtiter broth dilution (NCCLS M100-S14), S. pneumoniae 1016 (susceptible); conditions: Streptococcus pneumoniae 1016
In short: as §1

[3] = tested on: Streptococcus pneumoniae 1095; conditions: Streptococcus pneumoniae 1095; microtiter broth dilution
In short: as §1

[4] = tested on: Streptococcus pneumoniae 1175; conditions: Streptococcus pneumoniae 1175; microtiter broth dilution
In short: as §1

[5] = tested on: Streptococcus pyogenes 1079; assay: MIC, microtiter broth dilution (NCCLS M100-S14), S. pyogenes 1079 (ermB); conditions: Streptococcus pyogenes 1079
In short: as §1

SMILES | MIC H. influenzae 1218 [1] | MIC S. pneumo. 1016 [2] | MIC S. pneumo. 1095 [3] | MIC S. pneumo. 1175 [4] | MIC S. pyogenes 1079 [5]
CCC1OC(=O)C(C)C(=O)C(C)C(OC2OC(C)CC(N(C)C)C2O)C(C)(OC)CC(C)C(=O)C(C)C2N(C3CN(S(=O)(=O)c4ccc(-n5cccn5)c(C#N)c4)C3)C(=O)OC12C (stereo not shown) [Example 3.50] | 1 µg/mL (≈ 1.11 µM) | <0.06 µg/mL | <0.06 µg/mL | <0.06 µg/mL | 0.25 µg/mL (≈ 0.278 µM)
CCC1OC(=O)C(C)C(=O)C(C)C(OC2OC(C)CC(N(C)C)C2O)C(C)(OC)CC(C)C(=O)C(C)C2N(C3CN(S(=O)(=O)c4ccc(-c5nnn(C)n5)cc4)C3)C(=O)OC12C (stereo not shown) [Example 3.51, 3-descladinosyl-11,12-dideoxy-6-O-methyl-3-oxo-12,11-(oxycarbonyl-(1-(4-(2-methyl-2H-tetrazol-5-yl)benzenesulfonyl)-azetidin-3-yl)-imino)-erythromycin A] | 2 µg/mL (≈ 2.25 µM) | <0.06 µg/mL | <0.06 µg/mL | <0.06 µg/mL | 0.5 µg/mL (≈ 0.562 µM)
CCC1OC(=O)C(C)C(=O)C(C)C(OC2OC(C)CC(N(C)C)C2O)C(C)(OC)CC(C)C(=O)C(C)C2N(C3CN(S(=O)(=O)c4ccc(-n5cncn5)cc4)C3)C(=O)OC12C (stereo not shown) [Example 3.52, 3-descladinosyl-11,12-dideoxy-6-O-methyl-3-oxo-12,11-(oxycarbonyl-(1-(4-(1H-1,2,4-triazol-1-yl)benzenesulfonyl)-azetidin-3-yl)-imino)-erythromycin A] | 2 µg/mL (≈ 2.29 µM) | <0.06 µg/mL | 0.12 µg/mL (≈ 0.137 µM) | 0.12 µg/mL (≈ 0.137 µM) | 4 µg/mL (≈ 4.57 µM)
CCC1OC(=O)C(C)C(=O)C(C)C(OC2OC(C)CC(N(C)C)C2O)C(C)(OC)CC(C)C(=O)C(C)C2N(C3CN(S(=O)(=O)c4ccc(-n5ccnc5)c(C)c4)C3)C(=O)OC12C (stereo not shown) [Example 3.53, 4-(1H-imidazol-1-yl)-3-methylbenzenesulfonyl] | 4 µg/mL (≈ 4.5 µM) | <0.06 µg/mL | <0.06 µg/mL | 0.25 µg/mL (≈ 0.282 µM) | 64 µg/mL (≈ 72.1 µM)
CCC1OC(=O)C(C)C(=O)C(C)C(OC2OC(C)CC(N(C)C)C2O)C(C)(OC)CC(C)C(=O)C(C)C2N(C3CN(S(=O)(=O)c4ccc(-c5nc6ccc(C)cc6s5)cc4)C3)C(=O)OC12C (stereo not shown) [Example 3.54, 3-descladinosyl-11,12-dideoxy-4-O-methyl-3-oxo-12,11-(oxycarbonyl-(1-(4-(6-methylbenzo[d]thiazol-2-yl)benzenesulfonyl)-azetidin-3-yl)imino)-erythromycin A] | >64.00 µg/mL | <0.06 µg/mL | 4 µg/mL (≈ 4.19 µM) | 4 µg/mL (≈ 4.19 µM) | 8 µg/mL (≈ 8.38 µM)
CCC1OC(=O)C(C)C(=O)C(C)C(OC2OC(C)CC(N(C)C)C2O)C(C)(OC)CC(C)C(=O)C(C)C2N(C3CN(S(=O)(=O)c4ccc(-n5nccn5)cc4)C3)C(=O)OC12C (stereo not shown) [Example 3.55, 3-descladinosyl-11,12-dideoxy-4-O-methyl-3-oxo-12,11-(oxycarbonyl-(1-(4-(2H-1,2,3-triazol-2-yl)benzenesulfonyl)-azetidin-3-yl)-imino)erythromycin A] | 1 µg/mL (≈ 1.14 µM) | <0.06 µg/mL | <0.06 µg/mL | <0.06 µg/mL | <0.06 µg/mL
CCC1OC(=O)C(C)C(=O)C(C)C(OC2OC(C)CC(N(C)C)C2O)C(C)(OC)CC(C)C(=O)C(C)C2N(C3CN(S(=O)(=O)c4ccc(-c5nnco5)cc4)C3)C(=O)OC12C (stereo not shown) [Example 3.56, 3-descladinosyl-11,12-dideoxy-6-O-methyl-3-oxo-12,11-(oxycarbonyl-(1-(4-(1,3,4-oxadiazol-2-yl)benzenesulfonyl)-azetidin-3-yl)-imino)-erythromycin A] | 1 µg/mL (≈ 1.14 µM) | <0.06 µg/mL | <0.06 µg/mL | <0.06 µg/mL | 0.5 µg/mL (≈ 0.571 µM)
CCC1OC(=O)C(C)C(=O)C(C)C(OC2OC(C)CC(N(C)C)C2O)C(C)(OC)CC(C)C(=O)C(C)C2N(C3CN(S(=O)(=O)c4ccc5nn[nH]c5c4)C3)C(=O)OC12C (stereo not shown) [Example 3.57] | 1 µg/mL (≈ 1.18 µM) | <0.06 µg/mL | <0.06 µg/mL | 8 µg/mL (≈ 9.42 µM) | 4 µg/mL (≈ 4.71 µM)
CCC1OC(=O)C(C)C(=O)C(C)C(OC2OC(C)CC(N(C)C)C2O)C(C)(OC)CC(C)C(=O)C(C)C2N(C3CN(S(=O)(=O)c4cccc(-n5cccn5)c4)C3)C(=O)OC12C (stereo not shown) [Example 3.58, 3-descladinosyl-11,12-dideoxy-6-O-methyl-3-oxo-12,11-(oxycarbonyl-(1-(3-(1H-pyrazol-1-yl)benzenesulfonyl)-azetidin-3-yl)-imino)-erythromycin A] | 1 µg/mL (≈ 1.14 µM) | <0.06 µg/mL | <0.06 µg/mL | <0.06 µg/mL | 4 µg/mL (≈ 4.58 µM)
CCC1OC(=O)C(C)C(=O)C(C)C(OC2OC(C)CC(N(C)C)C2O)C(C)(OC)CC(C)C(=O)C(C)C2N(C3CN(S(=O)(=O)c4cccc(-c5ncno5)c4)C3)C(=O)OC12C (stereo not shown) [Example 3.59] | 16 µg/mL (≈ 18.3 µM) | <0.06 µg/mL | 8 µg/mL (≈ 9.13 µM) | 8 µg/mL (≈ 9.13 µM) | 64 µg/mL (≈ 73.1 µM)
CCC1OC(=O)C(C)C(=O)C(C)C(OC2OC(C)CC(N(C)C)C2O)C(C)(OC)CC(C)C(=O)C(C)C2N(C3CN(S(=O)(=O)c4cccc(-c5nnc(C)o5)c4)C3)C(=O)OC12C (stereo not shown) [Example 3.60, 3-descladinosyl-11,12-dideoxy-6-O-methyl-3-oxo-12,11-(oxycarbonyl-(1-(3-(5-methyl-1,3,4-oxadiazol-2-yl)benzenesulfonyl)-azetidin-3-yl)imino)erythromycin A] | 2 µg/mL (≈ 2.25 µM) | <0.06 µg/mL | <0.06 µg/mL | 0.12 µg/mL (≈ 0.135 µM) | 4 µg/mL (≈ 4.49 µM)
CCC1OC(=O)C(C)C(=O)C(C)C(OC2OC(C)CC(N(C)C)C2O)C(C)(OC)CC(C)C(=O)C(C)C2N(C3CN(S(=O)(=O)c4ccc(-c5nnc(C)o5)cc4)C3)C(=O)OC12C (stereo not shown) [Example 3.61, 3-descladinosyl-11,12-dideoxy-4-O-methyl-3-oxo-12,11-(oxycarbonyl-(1-(4-(5-methyl-1,3,4-oxadiazol-2-yl)benzenesulfonyl)-azetidin-3-yl)-imino)-erythromycin A] | 2 µg/mL (≈ 2.25 µM) | <0.06 µg/mL | 2 µg/mL (≈ 2.25 µM) | 0.12 µg/mL (≈ 0.135 µM) | 2 µg/mL (≈ 2.25 µM)
CCC1OC(=O)C(C)C(=O)C(C)C(OC2OC(C)CC(N(C)C)C2O)C(C)(OC)CC(C)C(=O)C(C)C2N(C3CN(S(=O)(=O)c4cccc(-c5nnco5)c4)C3)C(=O)OC12C (stereo not shown) [Example 3.62, 3-descladinosyl-11,12-dideoxy-6-O-methyl-3-oxo-12,11-(oxycarbonyl-(1-(3-(1,3,4-oxadiazol-2-yl)benzenesulfonyl)-azetidin-3-yl)-imino)erythromycin A] | 2 µg/mL (≈ 2.28 µM) | <0.06 µg/mL | <0.06 µg/mL | 0.5 µg/mL (≈ 0.571 µM) | 8 µg/mL (≈ 9.13 µM)
CCC1OC(=O)C(C)C(=O)C(C)C(OC2OC(C)CC(N(C)C)C2O)C(C)(OC)CC(C)C(=O)C(C)C2N(C3CN(S(=O)(=O)c4cccc(-c5csnn5)c4)C3)C(=O)OC12C (stereo not shown) [Example 3.63, 3-descladinosy-11,12-dideoxy-6-O-methyl-3-oxo-12,11-(oxycarbonyl-(1-(3-(1,2,3-thiadiazol-4-yl)benzenesulfonyl)-azetidin-3-yl)-imino)-erythromycin A] | <0.06 µg/mL | <0.06 µg/mL | <0.06 µg/mL | <0.06 µg/mL | 0.25 µg/mL (≈ 0.28 µM)
CCC1OC(=O)C(C)C(=O)C(C)C(OC2OC(C)CC(N(C)C)C2O)C(C)(OC)CC(C)C(=O)C(C)C2N(C3CN(S(=O)(=O)c4ccc(-n5ccnc5)c(C#N)c4)C3)C(=O)OC12C (stereo not shown) [Example 3.64] | 0.5 µg/mL (≈ 0.556 µM) | <0.06 µg/mL | <0.06 µg/mL | <0.06 µg/mL | 32 µg/mL (≈ 35.6 µM)
CCC1OC(=O)C(C)C(=O)C(C)C(OC2OC(C)CC(N(C)C)C2O)C(C)(OC)CC(C)C(=O)C(C)C2N(C3CN(S(=O)(=O)c4cccc(-c5ncco5)c4)C3)C(=O)OC12C (stereo not shown) [Example 3.65, 3-descladinosyl-11,12-dideoxy-6-O-methyl-3-oxo-12,11-(oxycarbonyl-(1-(3-(oxazol-2-yl)benzenesulfonyl)-azetidin-3-yl)-imino)-erythromycin A] | 0.12 µg/mL (≈ 0.137 µM) | <0.06 µg/mL | <0.06 µg/mL | <0.06 µg/mL | 1 µg/mL (≈ 1.14 µM)
CCC1OC(=O)C(C)C(=O)C(C)C(OC2OC(C)CC(N(C)C)C2O)C(C)(OC)CC(C)C(=O)C(C)C2N(C3CN(S(=O)(=O)c4cccc(-c5cccnn5)c4)C3)C(=O)OC12C (stereo not shown) [Example 3.72, 3-descladinosyl-11,12-dideoxy-4-O-methyl-3-oxo-12,11-(oxycarbonyl-(1-(3-(pyridazin-3-yl)benzenesulfonyl)-azetidin-3-yl)-imino)erythromycin A] | 1 µg/mL (≈ 1.13 µM) | <0.06 µg/mL | <0.06 µg/mL | <0.06 µg/mL | 1 µg/mL (≈ 1.13 µM)
